Data from patent US6610675B1 (priority 1980, dated 2003).

Assays:
Assay type in all cases: in vivo, rat
[1] = system: ear swelling induced by croton oil; assay: Ear edema test; conditions: 1 mg/kg topical, 6 hr
Description: The test animals were Sprague/Dawley rats weighing approximately 150 grams each. In treatment groups, selected amounts of the test compound were dissolved in acetone containing 5% croton oil and 50 microliters of the solution were applied to the inner surface of the right ear of the rats. A control group was identically treated with vehicle only, i.e. 5% croton oil in acetone. Six hours after croton oil challenge, a constant region of each ear was removed by dissection under anesthesia. Then, 48 hours after steroid treatment, the animals were sacrificed and the thymi and adrenals were removed and weighed. The test results showing the inhibitory effect of topically applied steroids on the ear swelling induced by croton oil are summarized in Table II below.

[2] = system: granulation tissue formation caused by implantation of cotton pellets; assay: Granuloma formation test (local cotton pellet granuloma assay)
Description: The test compound was dissolved in acetone and aliquots of varying concentrations were injected into cotton pellets. The pellets were dried and then one pellet was implanted beneath the skin of each test rat. Six days later, the animals were sacrificed and the granulation tissue (granuloma) which formed in and around the implanted pellet was removed, dried and weighed. In addition, the thymi and adrenals were removed and weighed.

[3] = system: thymus weight in rats; assay: Thymus inhibition testing (subcutaneous administration); conditions: for Body weight gain / Thymus / Thymus Inhibition: Table VII, three days
Description: Several further studies were undertaken to determine the effects of selected compounds of the invention on thymi weights in rats when the drugs were systemically administered. In each of these studies, male Sprague-Dawley rats were used. […] On the fifth day (48 hours following the last treatment), the animals were sacrificed and the thymi weights were recorded. […] It is evident that the higher the inhibition of thymus activity at a given dose, the more toxic the compound is.

CCCC(=O)O[C@]1(C(=O)CO)CC[C@H]2[C@@H]3CCC4=CC(=O)CC[C@]4(C)[C@H]3[C@@H](O)C[C@@]21C [Hydrocortisone 17-butyrate, reference compound]
Ear Weight, % Increase [1]: −3.6 ± 3.5 %
Ear Weight, % Inhibition [1]: 106.0%
Ear Weight, Inflamed Ear [1]: 50.0 ± 2.3 mg
Ear Weight, Untreated Ear [1]: 52.0 ± 2.5 mg
Body wt. gain ([2]; Table III, 1 mg/pellet): 33.4 ± 1.4 g
Granulation tissue Dry wt. ([2]; Table III, 1 mg/pellet): 32.2 ± 5.0 mg/100 g body wt.
Granulation tissue Inhibition ([2]; Table III, 1 mg/pellet): 26.3%
Body wt. gain ([2]; Table III, 3 mg/pellet): 15.9 ± 1.4 g
Granulation tissue Dry wt. ([2]; Table III, 3 mg/pellet): 21.6 ± 2.2 mg/100 g body wt.
Granulation tissue Inhibition ([2]; Table III, 3 mg/pellet): 50.6%
Body wt. gain ([2]; Table III, 10 mg/pellet): 4.9 ± 1.0 g
Granulation tissue Dry wt. ([2]; Table III, 10 mg/pellet): 29.2 ± 3.1 mg/100 g body wt.
Granulation tissue Inhibition ([2]; Table III, 10 mg/pellet): 33.2%
Body wt. gain ([2]; Table IV, 300 μg/pellet): 26.2 ± 1.7 g
Granulation tissue Dry wt. ([2]; Table IV, 300 μg/pellet): 34.0 ± 5.3 mg
Granulation tissue Dry wt. Inhibition ([2]; Table IV, 300 μg/pellet): 58.1%
Granulation tissue Wet wt. ([2]; Table IV, 300 μg/pellet): 333 ± 21 mg
Granulation tissue Wet wt. Inhibition ([2]; Table IV, 300 μg/pellet): 41.2%
Thymus wt. ([2]; Table IV, 300 μg/pellet): 353 ± 37 mg
Thymus wt. (Decrease %) ([2]; Table IV, 300 μg/pellet): (20.7) %
Body wt. gain ([2]; Table IV, 1000 μg/pellet): 26.2 ± 1.2 g
Granulation tissue Dry wt. ([2]; Table IV, 1000 μg/pellet): 35.3 ± 4.2 mg
Granulation tissue Dry wt. Inhibition ([2]; Table IV, 1000 μg/pellet): 56.5%
Granulation tissue Wet wt. ([2]; Table IV, 1000 μg/pellet): 366 ± 24 mg
Granulation tissue Wet wt. Inhibition ([2]; Table IV, 1000 μg/pellet): 35.3%
Thymus wt. ([2]; Table IV, 1000 μg/pellet): 99 ± 7 mg
Thymus wt. (Decrease %) ([2]; Table IV, 1000 μg/pellet): (77.8) %
Body wt. gain ([2]; Table IV, 3000 μg/pellet): 6.7 ± 2.2 g
Granulation tissue Dry wt. ([2]; Table IV, 3000 μg/pellet): 28.0 ± 2.7 mg
Granulation tissue Dry wt. Inhibition ([2]; Table IV, 3000 μg/pellet): 65.5%
Granulation tissue Wet wt. ([2]; Table IV, 3000 μg/pellet): 329 ± 14 mg
Granulation tissue Wet wt. Inhibition ([2]; Table IV, 3000 μg/pellet): 41.9%
Thymus wt. ([2]; Table IV, 3000 μg/pellet): 58 ± 5 mg
Thymus wt. (Decrease %) ([2]; Table IV, 3000 μg/pellet): (87.0) %
Body wt. gain ([2]; Table IV, 10000 μg/pellet): -2.0 ± 2.4 g
Granulation tissue Dry wt. ([2]; Table IV, 10000 μg/pellet): 27.2 ± 2.4 mg
Granulation tissue Dry wt. Inhibition ([2]; Table IV, 10000 μg/pellet): 66.5%
Granulation tissue Wet wt. ([2]; Table IV, 10000 μg/pellet): 311 ± 7 mg
Granulation tissue Wet wt. Inhibition ([2]; Table IV, 10000 μg/pellet): 45.1%
Thymus wt. ([2]; Table IV, 10000 μg/pellet): 46 ± 7 mg
Thymus wt. (Decrease %) ([2]; Table IV, 10000 μg/pellet): (89.7) %
ED50 ([2]; Table XII, anti-inflammatory effect in cotton pellet granuloma): 480 μg/pellet
ED60 ([2]; dose causing 60% inhibition of granulation tissue weight): 1015 μg/pellet
Body weight gain ([3]; 0.3 mg/kg/day s.c.): 17.0 ± 0.8 g
Thymus ([3]; 0.3 mg/kg/day s.c.): 441 ± 27 mg
Thymus Inhibition ([3]; 0.3 mg/kg/day s.c.): 6.4%
Body weight gain ([3]; 1 mg/kg/day s.c.): 11.8 ± 0.8 g
Thymus ([3]; 1 mg/kg/day s.c.): 323 ± 16 mg
Thymus Inhibition ([3]; 1 mg/kg/day s.c.): 31.4%
Body weight gain ([3]; 3 mg/kg/day s.c.): 7.3 ± 0.5 g
Thymus ([3]; 3 mg/kg/day s.c.): 166 ± 5 mg
Thymus Inhibition ([3]; 3 mg/kg/day s.c.): 64.8%
Body weight gain ([3]; 10 mg/kg/day s.c.): -5.0 ± 1.1 g
Thymus ([3]; 10 mg/kg/day s.c.): 65 ± 5 mg
Thymus Inhibition ([3]; 10 mg/kg/day s.c.): 86.2%
TED40 ([3]; Table X, dose required to achieve 40% inhibition of thymi weight, subcutaneous): 1.3 mg
TED50 ([3]; Table X, dose required to achieve 50% inhibition of thymi weight, subcutaneous): 2.0 mg
TED40 ([3]; Table XII, thymus inhibition effect, subcutaneously): 1.3 mg/kg
